The source of these data is patent US6765011B2, “7-heterocyclyl quinoline and thieno[2,3-b]pyridine derivatives useful as antagonists of gonadotropin releasing hormone” (Ortho-McNeil Pharmaceutical, Inc., priority 2000, dated 2004).

pIC50: −log10 of the molar value. Structures can show the parent of a compound that is named as a salt.

For assay [1], the target named is T1, membrane-bound GnRH receptor (Rattus norvegicus, UniProt P30969).
T1 construct: from tissue; host or cells: rat pituitary homogenate (female and male, equal mixture)
T1 sequence (P30969 1-327): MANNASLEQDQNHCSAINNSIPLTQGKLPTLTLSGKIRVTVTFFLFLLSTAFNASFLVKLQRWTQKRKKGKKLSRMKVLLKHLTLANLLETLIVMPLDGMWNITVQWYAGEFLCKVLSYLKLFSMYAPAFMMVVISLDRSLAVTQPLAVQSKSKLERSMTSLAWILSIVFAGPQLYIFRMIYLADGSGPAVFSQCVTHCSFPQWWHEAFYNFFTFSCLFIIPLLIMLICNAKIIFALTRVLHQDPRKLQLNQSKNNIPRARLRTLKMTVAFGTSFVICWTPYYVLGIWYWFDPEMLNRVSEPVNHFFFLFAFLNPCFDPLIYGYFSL
Description: GnRH Receptor Binding Assay ([125I]-histrelin competition, rat pituitary homogenate). The conditions noted are these: [125I]-histrelin displacement, female and male rat pituitary homogenate; values without parentheses = IC50; read-out: Binding, IC50 (B % @ 30 μM). The source says:
GnRH Receptor Binding Assay
A homogenate prepared from an equal mixture of female and male rat pituitaries was used as the source of the membrane-bound GnRH receptor. The receptor was allowed to interact in solution with [^125I]-histrelin alone or in combination with a competitive ligand (the compound being tested). The bound radiolabeled ligand was separated from the free (unbound) radiolabeled ligand by filtration through glass filter mats using a 96-well plate harvesting system (Tomtec Mach II 96). In the absence of a competitive ligand, a maximum amount of radiolabeled ligand is bound to the receptor and trapped by the glass filter mats. […] The amount of receptor-bound [^125I]-histrelin on the filter mat was determined using a Wallac Betaplate™ Liquid Scintillation Counter. Binding was determined as follows:
B0 maximum concentration of compound
Average NSB: (NSB1+NSB2)/2
Corrected B0: Average B0−Average NSB
% inhibition of Corrected B0 (or maximum response) was calculated as follows:
% Inhibition=100−[((Actual counts per minute−Average NSB)/Corrected B0)*100]

Assay [2] concerns rat anterior pituitary cells. The assay is described as follows: Primary Pituitary Cell Culture Assay (luteinizing hormone in media after 1 nM GnRH). Format: cell-based. The conditions noted are these: inhibition of luteinizing hormone release, male rat primary pituitary cells. As for the experimental part: Primary Pituitary Cell Culture Assay
Male rats (between immature and adult) were sacrificed and the anterior pituitaries were collected from them. The pituitaries were dissociated and the cells were plated at a concentration of 0.33×10^6 cells/well on day 1. On day 3 the media on the cells was flushed and replaced with fresh media. The test compound was then added to the plated cells at a concentration ranging from 1 nM to 1000 nM. The plates were incubated at 37° C. at 5% CO2 for 2 days. On Day 5 the media was flushed again and replaced with fresh media. To the plates were then added test compound and 1 nM GnRH. The cells were incubated for 4 hours, the media was collected by centrifuging the plates at 1200 rpm Sorvall RT7 for 10 minutes, 900 μL of supernatant was pipetted from each well and dispensed to a 96 well plate. The deep well plates were covered and stored at […] for a day. The plates are then evaluated by ELISA ([…]) to determine the concentration of lutenizing hormone in the media. The assay was repeated at varying concentrations of the test compounds to determine IC50 values. The IC50 value is defined as the concentration of test compound at which 50% inhibition was achieved.

Assay [3] has as its target T2, GnRHR (Hek 293 cells with the GnRHR gene) (Homo sapiens, UniProt P30968).
T2 construct: expressed in transfected cells; host or cells: HEK 293 cells carrying the GnRHR gene, transfected with an hCG promoter-luciferase reporter
T2 sequence (P30968 1-328): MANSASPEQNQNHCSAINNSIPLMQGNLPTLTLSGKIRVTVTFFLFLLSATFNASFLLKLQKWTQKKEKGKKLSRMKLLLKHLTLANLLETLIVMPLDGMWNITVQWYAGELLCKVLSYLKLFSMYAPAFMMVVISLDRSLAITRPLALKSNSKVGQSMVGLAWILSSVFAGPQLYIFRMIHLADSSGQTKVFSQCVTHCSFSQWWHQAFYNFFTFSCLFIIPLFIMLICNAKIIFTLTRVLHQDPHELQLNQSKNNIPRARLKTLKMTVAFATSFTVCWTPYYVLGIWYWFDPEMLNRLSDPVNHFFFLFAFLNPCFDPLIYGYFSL
Description: LUCIFERASE Assay for GnRH (hCG promoter luciferase reporter). The conditions noted are these: antagonist format, against 0.6 nM Histrelin. Format: cell-based. As for the experimental part:
LUCIFERASE Assay for GnRH
Hek 293 cells with the GnRHR gene were transfected with the hCG promoter and the luciferase reporter system. On day 1, the cells were plated at a density of 80,000 cells per well on a Poly-D-lysine pre-coated 96 well plate. The plates were incubated at 37° C. for 24 hours. On day 2, the spent media was decanted and replaced with fresh media. Test compounds, standard and controls were added to individual wells. All the dilutions were done in 7.5% DMSO/(αMEM media. The assay was run in both agonist and antagonist format. For the antagonist format, the assay measurements were run against a standard of 0.6 nM Histrelin. On day 3, the levels of luciferase production were measured in a chemiluminescence assay using Enhanced Luciferase Assay Kit. The results were expressed as % Inhibition using the following formula: […]
RLU Relative Light Units, a measure of chemiluminescence
Agonist [RLU value(test compound)−(Background/0.6 nM Histrelin)−Background]*100
Antagonist (1−[(RLU value−(Background/0.6 nM Histrelin)−Background)*100])
The calculated percentages were plotted on a graph using Graph Pad Prizm and the IC50/EC50 values determined.

The pIC50 is the negative decadic logarithm of the IC50, by convention in mol/L. `COc1ccc(-c2sc3c(c4n[nH]c(=O)c-4cn3Cc3ccccc3OC)c2CN(C)Cc2ccccc2)cc1` [Compound 8, 2,5-Dihydro-7-(4-methoxyphenyl)-5-[(2-methoxyphenyl)methyl]-8-[[methyl(phenylmethyl)amino]methyl]-3H-pyrazolo[3,4-d]thieno[2,3-b]pyridin-3-one]: the pIC50 in assay [1] was 4.52. Take `CN(Cc1ccccc1)Cc1cc2c3n[nH]c(=O)c-3cn(Cc3c(F)cccc3F)c2cc1Br` [Compound 3, 2,5-Dihydro-7-bromo-8-[[methyl(phenylmethyl)amino]methyl]-5-[(2,6-difluorophenyl)methyl]-3H-pyrazolo[4,3-c]quinolin-3-one]: in assay [1], the pIC50 is 4.80. In the case of `CCOC(=O)c1cn(Cc2c(F)cccc2F)c2cc(-c3cc4ccccc4o3)c(CN(C)Cc3ccccc3)cc2c1=O` [Compound 2, 6-(N-Benzyl-N-methylaminomethyl)-7-(benzofuran-2-yl)-1-(2,6-difluorobenzyl)-1,4-dihydro-4-oxoquinoline-3-carboxylic Acid Ethylester], the pIC50 in assay [2] is 5.61; in assay [3], 5.49.

As for `CCOc1nnc2c3cc(CN(C)Cc4ccccc4)c(-c4cc5ccccc5o4)cc3n(Cc3c(F)cccc3F)cc1-2` [Compound 6, 7-(Benzofuran-2-yl)-3-ethoxy-5-[(2,6-difluorophenyl)methyl]-8-[[methyl(phenylmethyl)amino]methyl]-5H-pyrazolo[4,3-c]quinoline HCl], the pIC50 in assay [1] was 5.30. `CN(Cc1ccccc1)Cc1cc2c3n[nH]c(=O)c-3cn(Cc3c(F)cccc3F)c2cc1-c1cc2ccccc2o1` [Compound 4, 2,5-Dihydro-7-(benzofuran-2-yl)-8-[[methyl(phenylmethyl)amino]methyl]-5-[(2,6-difluorophenyl)methyl]-3H-pyrazolo[4,3-c]quinolin-3-one]: in assay [1], the pIC50 is 6.00.

For `COc1ccc(-c2sc3c(c2CN(C)Cc2ccccc2)c(=O)c(C(=O)NN)cn3Cc2ccccc2OC)cc1` [Compound 7, 4,7-Dihydro-2-(4-methoxyphenyl)-7-[(2-methoxyphenyl)methyl]-3-[[methyl(phenylmethyl)amino]methyl]-4-oxo-thieno[2,3-b]pyridine-5-carboxylic Acid, Hydrazide bis-Hydrochloride], the pIC50 in assay [2] is 5.83; in assay [1], 5.80.

Regarding `CCOC(=O)c1cn(Cc2c(F)cccc2F)c2cc(-c3ccsc3)c(CN(C)Cc3ccccc3)cc2c1=O` [Compound 1, 6-(N-Benzyl-N-methylaminomethyl)-7-(thien-3-yl)-1-(2,6-difluorobenzyl)-1,4-dihydro-4-oxoquinoline-3-carboxylic Acid Ethyl Ester], the pIC50 is 4.49 in assay [1] and 5.00 in assay [3]. On to `CN(Cc1ccccc1)Cc1cc2c3nnc(OCc4ccccc4)c-3cn(Cc3c(F)cccc3F)c2cc1-c1cc2ccccc2o1` [Compound 5, 7-(Benzofuran-2-yl)-3-[(phenylmethyl)oxy]-5-[(2,6-difluorophenyl)methyl]-8-[[methyl(phenylmethyl)amino]methyl]-5H-pyrazolo[4,3-c]quinoline], for which the pIC50 in assay [1] was 5.30.
